Laboratory results published in paper PMC9481570, “A small molecule antagonist of SMN disrupts the interaction between SMN and RNAP II” (Nature Communications, 2022).
Several values for one entry are separate records, joined by “and”; a condition that tells them apart may be missing. Identical values can stand only once. Like-named read-outs stand apart in the source and are kept apart here.

Tests used:
[1] = target: T1, SMN Tudor domain (Homo sapiens, UniProt Q16637); test: ITC binding to Tudor domain of SMN
T1 construct: SMN (aa 82–147); His (N, cleaved yes); made in house; host or cells: E. coli BL21 (DE3) Codon plus RIL
T1 sequence (Q16637 82-147): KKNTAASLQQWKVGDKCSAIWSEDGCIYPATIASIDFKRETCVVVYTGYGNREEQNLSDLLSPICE
From the text: (§1) The coding DNA fragments of following Tudor domains were cloned into pET28-MHL vector: SMN (aa 82–147), UHRF1 (aa 126–285), SMNDC1 (aa 53–130), TDRD3 (aa 554–611), SND1 (aa 650–910), TDRD2 (aa 327–420), FXR1 (aa 2–132), PHF1 (aa 28–87), SGF29 (aa 115–293), JMJD2A (aa 897–1101), 53BP1 (aa 1483–1606), SETDB1 (aa 190–410), LBR (aa 1–67), ZGPAT (aa 120–271). The coding regions of chromodomain of CBX7 (aa 8–62), PWWP domain of DNMT3A (aa 275–417), WD40 repeats of WDR5 (aa 24–334) and CW domain of ZCWPW2 (aa 21–78) were also subcloned into pET28-MHL vector to generate N-terminally His-tagged fusion protein. The MBT repeats of L3MBTL1 (aa 200–522) and L3MBTL2 (aa 170–625) were subcloned into pET28GST-LIC vector to generate N-terminally GST-His-tagged fusion protein. All the plasmids were generated by ligase independent cloning (Vazyme Biotech, C112 or ABclonal Technology, RK21020). […] The proteins were further purified by Superdex75 or Superdex200 gel-filtration column (GE Healthcare) in a buffer containing 20 mM Tris-HCl, pH 7.5, 150 mM NaCl and 1 mM DTT. For crystallization experiments, purified proteins were concentrated to 18 mg/mL for SMN, 23 mg/mL for UHRF1 and 10 mg/mL for TDRD3 in the gel-filtration buffer. All the mutations were introduced with the QuikChange II XL site-directed mutagenesis kit (Stratagene, 200522) and confirmed by DNA sequencing. Mutant proteins were also expressed in E. coli BL21 (DE3) Codon plus RIL and purified using the same procedures described above. The molecular weight of all protein samples was measured by mass spectrometry.
(§2) For the ITC measurement, the concentrated proteins were diluted into 20 mM Tris-HCl, pH 7.5, 150 mM NaCl (ITC buffer); the lyophilized compounds were dissolved in the same buffer, and the pH value was adjusted by adding 2 M NaOH or 2 M HCl. The compounds that could not be dissolved in the ITC buffer were dissolved in DMSO with the accessible highest concentration. Compound concentrations were calculated from the mass and the volume of the solvent. For the ITC assay with compound dissolved in DMSO, the protein was diluted by ITC buffer containing same final concentration of DMSO. All measurements were performed in duplicate at 25 °C, using a VP-ITC (MicroCal, Inc.), an iTC-200 (MicroCal, Inc.), or a Nano-ITC (TA, Inc.) microcalorimeter. The protein with a concentration of 50–100 μM was placed in the cell chamber, and the compounds with a concentration of 0.5–2 mM in syringe was injected in 25, 20, or 20 successive injections with a spacing of 180, 150, or 120 s for VP-ITC, iTC-200, or Nano-ITC, respectively, as previously described[30]–[32]. iTC-200 or Nano-ITC data were consistent with those from the VP-ITC instrument, based on ITC results of SMN-compound 1 detected by using all the instruments. Control experiments were performed under identical conditions to determine the heat signals that arise from injection of the compounds into the buffer. Data were fitted using the single-site binding model within the Origin software 7.0 package (MicroCal, Inc.) or the independent model within the Nano-Analyze software package (TA, Inc.).

[2] = target: T2, UHRF1 tandem Tudor domain (TTD) (Homo sapiens, UniProt Q96T88); test: ITC binding to tandem Tudor domain of UHRF1
T2 construct: UHRF1 (aa 126–285); His (N, cleaved yes); made in house; host or cells: E. coli BL21 (DE3) Codon plus RIL
T2 sequence (Q96T88 126-285): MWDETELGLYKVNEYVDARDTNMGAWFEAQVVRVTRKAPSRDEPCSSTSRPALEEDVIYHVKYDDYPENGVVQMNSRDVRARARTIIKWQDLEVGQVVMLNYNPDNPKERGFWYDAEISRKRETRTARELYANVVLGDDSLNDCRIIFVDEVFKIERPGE
From the text: as §1, §2

[3] = test system: R-loops in HEK293 cells; test: Global nuclear R-loop immunofluorescence (S9.6 antibody); assay type: cell-based, human; details: 20 μM, 72 h, S9.6 immunofluorescence
Description: Global nuclear R-loop detection was ascertained via immunofluorescence using the S9.6 antibody (Kerafast, ENH001)[58]. At 24 h prior to immunofluorescence, 40,000 cells were seeded on to Poly-L-Lysine (PLL) coated coverslips. Cells were fixed using 1% formaldehyde for 15 min, washed three times with PBS, permeabilized with 0.3% Triton X-100 and washed again three times with PBS. Coverslips were blocked using 5% BSA for 1 h at room temperature and transferred to humidified chambers for antibody incubations. Coverslips were incubated with 60 μL of monoclonal S9.6 antibody (Kerafast, ENH001, 1:500) for 1 h at room temperature. After washing with PBS, cells were incubated with a secondary goat anti-mouse Alexa Fluor 488 antibody (Thermo Fisher, A11001, 1:1000) for 1 h in a dark chamber. Following further washing and DAPI staining, coverslips were mounted onto microscope slides using DAKO fluorescent mounting medium (Agilent, S302380-2) and then sealed with nail polish. […] The coverslips were processed for immunofluorescence 24 h later using the primary antibodies monoclonal S9.6 (Kerafast, ENH001, 1:500), or polyclonal anti-RNase H1 (Proteintech, 15606-1-AP, 1:500) and the secondary antibodies goat anti-mouse Alexa Fluor 488 (Thermo Fisher, A11001, 1:1000) or goat anti-rabbit Alexa Fluor 568 (Thermo Fisher, A11011, 1:1000) to quantify R-loop and confirm RNase H1 overexpression, respectively. […]

[4] = ITC, Tudor domain of SMN wild type, 25 °C, read-out: Kd (SMN)

| Structure (SMILES) | Kd [1, 4] [µM] | Kd (UHRF1) [2] | global nuclear R-loop levels in comparison to the DMSO controls [3] | Kd ([1]; Supplementary Fig. 11a, iTC-200, read-out: Kd, ITC binding curve, SMN) [µM] | selectivity of SMN and SMNDC1 Tudor domains over TDRD3 ([1]; from ITC Kd) | selectivity over other tested methyllysine or methylarginine binding domains ([1]; from ITC Kd) [fold] | SMN binds more tightly than its physiological ligands ([1]; versus symmetric dimethylarginine or R1810me2s-POLR2A) | Kd [2] |
| --- | --- | --- | --- | --- | --- | --- | --- | --- |
| CCCn1c2c(c(=N)c3c1CCC3)CCC2 [Compound 2, 4-propyl-2,3,4,5,6,7-hexahydrodicyclopenta[b,e]pyridin-8(1H)-imine] | 9.3 ± 0.6 | No binding | significantly increased |  |  |  |  |  |
| Cn1c2c(c(=N)c3c1CCC3)CCC2 [Compound 1, 4-methyl-2,3,4,5,6,7-hexahydrodicyclopenta[b,e]pyridin-8(1H)-imine] | 2.6 ± 0.1 |  | significantly increased | 3.9 ± 0.5 | ~ 4 fold | > 4 | 60–180 fold | ~16 µM and 16 µM |
